Test results published in patent US12043612B2, “Methods of manufacturing a bifunctional compound, ultrapure forms of the bifunctional compound, and dosage forms comprising the same” (Arvinas Operations, Inc., priority 2020, dated 2024).

Test: Exploratory stability study on Compound A drug substance (HPLC, water content, XRPD)
Assay type: physicochemical
Set-up: Water Content: unit: wt %
Method: This is a reverse phase high performance liquid chromatography (HPLC) method devised to determine the assay and impurity profile of Compound A for release and stability testing. The method was qualified for its intended uses. Forced degradation studies were performed and used to qualify this method as stability indicating. The HPLC parameters are listed below in Table 6.
An exploratory stability study on Compound A is on-going. The stability of Compound A will be studied at 5° C., 25° C./60% RH, and 40° C./75% RH with sampling points at 1, 2, 3, and 6 months. Samples will be analyzed using the stability indicating method TEST-05187 (high performance liquid chromatography (HPLC)).
The critical quality attributes of the drug substance Compound A that will be monitored are appearance, purity, assay (wt %), impurities, water content, and x-ray powder diffraction (XRPD). The container and closure system for the stability study consists of double plastic (PE) bags placed inside an high-density polyethylene (HDPE) container.

[1] = Initial Date (about 3 months after date of manufacture)
[2] = Storage at 5° C. +/− 3° C., Initial Date + 1 Month
[3] = Storage at 5° C. +/− 3° C., Initial Date + 2 Months
[4] = Storage at 25° C. ± 2° C./60% RH ± 5%, Initial Date + 1 Month
[5] = Storage at 25° C. ± 2° C./60% RH ± 5%, Initial Date + 2 Months
[6] = Storage at 40° C. ± 2° C./75% RH ± 5%, Initial Date + 1 Month
[7] = Storage at 40° C. ± 2° C./75% RH ± 5%, Initial Date + 2 Months

N#Cc1ccc(O[C@H]2CC[C@H](NC(=O)c3ccc(N4CCC(CN5CCN(c6cc7c(cc6F)C(=O)N(C6CCC(=O)NC6=O)C7=O)CC5)CC4)nn3)CC2)cc1Cl (stereo partly shown) [Compound A, N-[(1r,4r)-4-(3-chloro-4-cyanophenoxy)cyclohexyl]-6-[4-({4-[2-(2,6-dioxopiperidin-3-yl)-6-fluoro-1,3-dioxo-2,3-dihydro-1H-isoindol-5-yl]piperazin-1-yl}methyl)piperidin-1-yl]pyridazine-3-carboxamide]
Appearance (At Date of Manufacture): Yellow
HPLC Assay (wt %) (At Date of Manufacture): 97.7 wt %
HPLC Impurities (%) RRT 0.50 (Intermediate 5) (At Date of Manufacture): 0.06%
HPLC Impurities (%) RRT 0.89 (At Date of Manufacture): 0.07%
HPLC Impurities (%) RRT 0.90 (At Date of Manufacture): ND (ND = <_0.02%)
HPLC Impurities (%) RRT 0.92 (At Date of Manufacture): 0.07%
HPLC Impurities (%) RRT 0.94 (At Date of Manufacture): ND (ND = <_0.02%)
HPLC Impurities (%) RRT 0.96 (Intermediate 2) (At Date of Manufacture): 0.16%
HPLC Impurities (%) RRT 1.02 (At Date of Manufacture): 0.39%
HPLC Impurities (%) RRT 1.04 (Intermediate 3) (At Date of Manufacture): 0.12%
HPLC Impurities (%) RRT 1.05 (Impurity 1) (At Date of Manufacture): <QL (QL = 0.05%)
HPLC Impurities (%) RRT 1.07 (At Date of Manufacture): 0.19%
HPLC Impurities (%) RRT 1.23 (At Date of Manufacture): 0.06%
HPLC Impurities (%) RRT 1.32 (At Date of Manufacture): ND (ND = <_0.02%)
HPLC Impurities (%) RRT 1.36 (Intermediate 9) (At Date of Manufacture): 0.05%
HPLC Impurities (%) RRT 1.39 (At Date of Manufacture): 0.67%
HPLC Impurities (%) RRT 1.54 (At Date of Manufacture): ND (ND = <_0.02%)
HPLC Purity (%) (At Date of Manufacture): 98.0%
Total Impurities (%) (At Date of Manufacture): 2.0%
Water Content (At Date of Manufacture): 0.27
Water Content (wt %) (At Date of Manufacture): 0.27 wt %
XRPD (At Date of Manufacture): Crystalline
Appearance [1]: Yellow
HPLC Assay (wt %) [1]: 99.5 wt %
HPLC Impurities (%) RRT 0.50 (Intermediate 5) [1]: 0.06%
HPLC Impurities (%) RRT 0.89 [1]: 0.08%
HPLC Impurities (%) RRT 0.90 [1]: <QL (QL = 0.05%)
HPLC Impurities (%) RRT 0.92 [1]: 0.06%
HPLC Impurities (%) RRT 0.94 [1]: ND (ND = <_0.02%)
HPLC Impurities (%) RRT 0.96 (Intermediate 2) [1]: 0.18%
HPLC Impurities (%) RRT 1.02 [1]: 0.38%
HPLC Impurities (%) RRT 1.04 (Intermediate 3) [1]: 0.11%
HPLC Impurities (%) RRT 1.05 (Impurity 1) [1]: ND (ND = <_0.02%)
HPLC Impurities (%) RRT 1.07 [1]: 0.15%
HPLC Impurities (%) RRT 1.23 [1]: 0.06%
HPLC Impurities (%) RRT 1.32 [1]: ND (ND = <_0.02%)
HPLC Impurities (%) RRT 1.36 (Intermediate 9) [1]: ND (ND = <_0.02%)
HPLC Impurities (%) RRT 1.39 [1]: 0.45%
HPLC Impurities (%) RRT 1.54 [1]: <QL (QL = 0.05%)
HPLC Purity (%) [1]: 98.4%
Total Impurities (%) [1]: 1.3%
Water Content [1]: 0.86
Water Content (wt %) [1]: 0.86 wt %
XRPD [1]: Crystalline
Appearance [2]: Yellow
HPLC Assay (wt %) [2]: 97.4 wt %
HPLC Impurities (%) RRT 0.50 (Intermediate 5) [2]: 0.05%
HPLC Impurities (%) RRT 0.89 [2]: 0.07%
HPLC Impurities (%) RRT 0.90 [2]: <QL (QL = 0.05%)
HPLC Impurities (%) RRT 0.92 [2]: <QL (QL = 0.05%)
HPLC Impurities (%) RRT 0.94 [2]: ND (ND = <_0.02%)
HPLC Impurities (%) RRT 0.96 (Intermediate 2) [2]: 0.18%
HPLC Impurities (%) RRT 1.02 [2]: 0.33%
HPLC Impurities (%) RRT 1.04 (Intermediate 3) [2]: 0.09%
HPLC Impurities (%) RRT 1.05 (Impurity 1) [2]: ND (ND = <_0.02%)
HPLC Impurities (%) RRT 1.07 [2]: 0.15%
HPLC Impurities (%) RRT 1.23 [2]: 0.05%
HPLC Impurities (%) RRT 1.32 [2]: ND (ND = <_0.02%)
HPLC Impurities (%) RRT 1.36 (Intermediate 9) [2]: <QL (QL = 0.05%)
HPLC Impurities (%) RRT 1.39 [2]: 0.58%
HPLC Impurities (%) RRT 1.54 [2]: <QL (QL = 0.05%)
HPLC Purity (%) [2]: 98.4%
Total Impurities (%) [2]: 1.5%
Water Content (wt %) [2]: 0.85 wt %
XRPD [2]: Crystalline
Appearance [3]: Yellow
HPLC Assay (wt %) [3]: 97.4 wt %
HPLC Impurities (%) RRT 0.50 (Intermediate 5) [3]: 0.05%
HPLC Impurities (%) RRT 0.89 [3]: 0.07%
HPLC Impurities (%) RRT 0.90 [3]: <QL (QL = 0.05%)
HPLC Impurities (%) RRT 0.92 [3]: 0.06%
HPLC Impurities (%) RRT 0.94 [3]: <QL (QL = 0.05%)
HPLC Impurities (%) RRT 0.96 (Intermediate 2) [3]: 0.17%
HPLC Impurities (%) RRT 1.02 [3]: 0.29%
HPLC Impurities (%) RRT 1.04 (Intermediate 3) [3]: <QL (QL = 0.05%)
HPLC Impurities (%) RRT 1.05 (Impurity 1) [3]: ND (ND = <_0.02%)
HPLC Impurities (%) RRT 1.07 [3]: 0.15%
HPLC Impurities (%) RRT 1.23 [3]: <QL (QL = 0.05%)
HPLC Impurities (%) RRT 1.32 [3]: 0.05%
HPLC Impurities (%) RRT 1.36 (Intermediate 9) [3]: <QL (QL = 0.05%)
HPLC Impurities (%) RRT 1.39 [3]: 0.61%
HPLC Impurities (%) RRT 1.54 [3]: <QL (QL = 0.05%)
HPLC Purity (%) [3]: 98.4%
Total Impurities (%) [3]: 1.5%
Water Content (wt %) [3]: 1.0 wt %
XRPD [3]: Crystalline
Appearance [4]: Yellow
HPLC Assay (wt %) [4]: 97.3 wt %
HPLC Impurities (%) RRT 0.50 (Intermediate 5) [4]: 0.05%
HPLC Impurities (%) RRT 0.89 [4]: 0.07%
HPLC Impurities (%) RRT 0.90 [4]: <QL (QL = 0.05%)
HPLC Impurities (%) RRT 0.92 [4]: 0.07%
HPLC Impurities (%) RRT 0.94 [4]: ND (ND = <0.02%)
HPLC Impurities (%) RRT 0.96 (Intermediate 2) [4]: 0.18%
HPLC Impurities (%) RRT 1.02 [4]: 0.34%
HPLC Impurities (%) RRT 1.04 (Intermediate 3) [4]: 0.07%
HPLC Impurities (%) RRT 1.05 (Impurity 1) [4]: ND (ND = <0.02%)
HPLC Impurities (%) RRT 1.07 [4]: 0.15%
HPLC Impurities (%) RRT 1.23 [4]: 0.05%
HPLC Impurities (%) RRT 1.32 [4]: ND (ND = <0.02%)
HPLC Impurities (%) RRT 1.36 (Intermediate 9) [4]: <QL (QL = 0.05%)
HPLC Impurities (%) RRT 1.39 [4]: 0.57%
HPLC Impurities (%) RRT 1.54 [4]: <QL (QL = 0.05%)
HPLC Purity (%) [4]: 98.3%
Total Impurities (%) [4]: 1.6%
Water Content [4]: 0.93
XRPD [4]: Crystalline
Appearance [5]: Yellow
HPLC Assay (wt %) [5]: 97.5 wt %
HPLC Impurities (%) RRT 0.50 (Intermediate 5) [5]: 0.05%
HPLC Impurities (%) RRT 0.89 [5]: 0.07%
HPLC Impurities (%) RRT 0.90 [5]: <QL (QL = 0.05%)
HPLC Impurities (%) RRT 0.92 [5]: 0.06%
HPLC Impurities (%) RRT 0.94 [5]: <QL (QL = 0.05%)
HPLC Impurities (%) RRT 0.96 (Intermediate 2) [5]: 0.17%
HPLC Impurities (%) RRT 1.02 [5]: 0.28%
HPLC Impurities (%) RRT 1.05 (Impurity 1) [5]: ND (ND = <0.02%)
HPLC Impurities (%) RRT 1.07 [5]: 0.15%
HPLC Impurities (%) RRT 1.23 [5]: 0.05%
HPLC Impurities (%) RRT 1.32 [5]: <QL (QL = 0.05%)
HPLC Impurities (%) RRT 1.36 (Intermediate 9) [5]: ND (ND = <0.02%)
HPLC Impurities (%) RRT 1.39 [5]: 0.65%
HPLC Impurities (%) RRT 1.54 [5]: <QL (QL = 0.05%)
HPLC Purity (%) [5]: 98.3%
Total Impurities (%) [5]: 1.5%
Water Content [5]: 1.2
XRPD [5]: Crystalline
Appearance [6]: Yellow
HPLC Assay (wt %) [6]: 97.3 wt %
HPLC Impurities (%) RRT 0.50 (Intermediate 5) [6]: 0.05%
HPLC Impurities (%) RRT 0.89 [6]: 0.06%
HPLC Impurities (%) RRT 0.90 [6]: <QL (QL = 0.05%)
HPLC Impurities (%) RRT 0.92 [6]: 0.07%
HPLC Impurities (%) RRT 0.94 [6]: ND (ND = <0.02%)
HPLC Impurities (%) RRT 0.96 (Intermediate 2) [6]: 0.18%
HPLC Impurities (%) RRT 1.02 [6]: 0.34%
HPLC Impurities (%) RRT 1.04 (Intermediate 3) [6]: 0.08%
HPLC Impurities (%) RRT 1.05 (Impurity 1) [6]: ND (ND = <0.02%)
HPLC Impurities (%) RRT 1.07 [6]: 0.14%
HPLC Impurities (%) RRT 1.23 [6]: 0.05%
HPLC Impurities (%) RRT 1.32 [6]: ND (ND = <0.02%)
HPLC Impurities (%) RRT 1.36 (Intermediate 9) [6]: <QL (QL = 0.05%)
HPLC Impurities (%) RRT 1.39 [6]: 0.58%
HPLC Impurities (%) RRT 1.54 [6]: <QL (QL = 0.05%)
HPLC Purity (%) [6]: 98.3%
Total Impurities (%) [6]: 1.6%
Water Content [6]: 1.0
XRPD [6]: Crystalline
Appearance [7]: Yellow
HPLC Assay (wt %) [7]: 97.2 wt %
HPLC Impurities (%) RRT 0.50 (Intermediate 5) [7]: 0.06%
HPLC Impurities (%) RRT 0.89 [7]: 0.06%
HPLC Impurities (%) RRT 0.90 [7]: <QL (QL = 0.05%)
HPLC Impurities (%) RRT 0.92 [7]: 0.07%
HPLC Impurities (%) RRT 0.94 [7]: <QL (QL = 0.05%)
HPLC Impurities (%) RRT 0.96 (Intermediate 2) [7]: 0.18%
HPLC Impurities (%) RRT 1.02 [7]: 0.28%
HPLC Impurities (%) RRT 1.04 (Intermediate 3) [7]: <QL (QL = 0.05%)
HPLC Impurities (%) RRT 1.05 (Impurity 1) [7]: ND (ND = <0.02%)
HPLC Impurities (%) RRT 1.07 [7]: 0.14%
HPLC Impurities (%) RRT 1.23 [7]: 0.06%
HPLC Impurities (%) RRT 1.32 [7]: <QL (QL = 0.05%)
HPLC Impurities (%) RRT 1.36 (Intermediate 9) [7]: ND (ND = <0.02%)
HPLC Impurities (%) RRT 1.39 [7]: 0.63%
HPLC Impurities (%) RRT 1.54 [7]: <QL (QL = 0.05%)
HPLC Purity (%) [7]: 98.3%
Total Impurities (%) [7]: 1.5%
Water Content [7]: 1.3
XRPD [7]: Crystalline
change in impurities and solid properties (after 2 months at all temperature stations): no increase in impurities nor change in solid properties
change in impurities and solid properties (after 5 months from the date of manufacture): no increase in impurities or change in solid properties
change in water content (stability study, all temperature stations): small increase in the water content
